From the NIST ThermoML archive (doi:10.1021/je060124c)

Experiment: mn = molality of the nth substance listed, in mol/kg
Settings: Liquid, Capillary tube (Ostwald / Ubbelohde) method

[Cl-].[Li+] [lithium chloride] + O
viscosity [mPa·s]
Settings	100 kPa	10000 kPa	20000 kPa	40000 kPa
298.15 K, m1 = 0.0473	0.8971	0.8975	0.898	0.899
298.15 K, m1 = 0.1185	0.907	0.9075	0.908	0.909
298.15 K, m1 = 0.4814	0.9559	0.9562	0.957	0.958
298.15 K, m1 = 1.242	1.062	1.062	1.062	1.062
298.15 K, m1 = 2.621	1.289	1.29	1.291	1.292
298.15 K, m1 = 5.897	1.925	1.926	1.927	1.928
298.15 K, m1 = 7.863	2.535	2.536	2.537	2.538
298.15 K, m1 = 10.11	3.426	3.427	3.428	3.429
298.15 K, m1 = 12.7	5.414	5.416	5.418	5.42
298.15 K, m1 = 16.39	9.44	9.443	9.449	9.451
323.15 K, m1 = 0.0473	0.5513	0.5535	0.5551	0.5594
323.15 K, m1 = 0.1185	0.5573	0.5599	0.5618	0.5665
323.15 K, m1 = 0.4814	0.5884	0.5905	0.5927	0.5974
323.15 K, m1 = 1.242	0.6546	0.657	0.66	0.66
323.15 K, m1 = 2.621	0.7967	0.8	0.8028	0.8094
323.15 K, m1 = 5.897	1.206	1.21	1.215	1.224
323.15 K, m1 = 7.863	1.576	1.582	1.588	1.601
323.15 K, m1 = 10.11	2.116	2.123	2.131	2.147
323.15 K, m1 = 12.7	3.121	3.131	3.143	3.167
323.15 K, m1 = 16.39	5.173	5.19	5.209	5.249
348.15 K, m1 = 0.0473	0.381	0.3839	0.387	0.392
348.15 K, m1 = 0.1185	0.3851	0.388	0.391	0.3968
348.15 K, m1 = 0.4814	0.4072	0.4099	0.4128	0.4189
348.15 K, m1 = 1.242	0.4536	0.4575	0.462	0.462
348.15 K, m1 = 2.621	0.5541	0.5583	0.5621	0.5704
348.15 K, m1 = 5.897	0.8423	0.8484	0.8546	0.8667
348.15 K, m1 = 7.863	1.102	1.109	1.117	1.133
348.15 K, m1 = 10.11	1.466	1.476	1.487	1.507
348.15 K, m1 = 12.7	2.075	2.09	2.104	2.134
348.15 K, m1 = 16.39	3.293	3.316	3.339	3.386
370.2 K, m1 = 2.621	0.428	0.4328	0.4367	0.4449
370.4 K, m1 = 7.863	0.8587	0.867	0.8747	0.8907
370.45 K, m1 = 10.11	1.127	1.138	1.148	1.169
370.55 K, m1 = 12.7	1.53	1.544	1.559	1.587
370.7 K, m1 = 5.897	0.6536	0.6594	0.666	0.6781
371.25 K, m1 = 1.242	0.3462	0.3496	0.353	0.353
371.43 K, m1 = 0.4814	0.3099	0.313	0.3159	0.3217
372.06 K, m1 = 0.1185	0.2906	0.2912	0.2961	0.3015
372.33 K, m1 = 0.0473	0.2867	0.2894	0.2921	0.2975
372.4 K, m1 = 16.39	2.308	2.329	2.351	2.394
397.2 K, m1 = 5.897	–	0.5175	0.5233	0.5352
397.25 K, m1 = 12.7	–	1.162	1.175	1.202
397.6 K, m1 = 10.11	–	0.8792	0.8897	0.9092
398.95 K, m1 = 0.0473	–	0.2258	0.228	0.2335
399.2 K, m1 = 16.39	–	1.71	1.73	1.769
399.31 K, m1 = 7.863	–	0.6675	0.6758	0.6916
399.72 K, m1 = 2.621	–	0.3286	0.3327	0.3409
399.74 K, m1 = 0.1185	–	0.2261	0.2292	0.2339
399.75 K, m1 = 0.4814	–	0.24	0.243	0.2483
400.25 K, m1 = 1.242	–	0.2663	0.2696	0.2696
420.32 K, m1 = 0.4814	–	0.2047	0.2074	0.2127
421.03 K, m1 = 0.1185	–	0.1915	0.1941	0.199
421.96 K, m1 = 5.897	–	0.4291	0.435	0.4463
422.4 K, m1 = 1.242	–	0.2248	0.2281	0.2281
422.51 K, m1 = 10.11	–	0.7257	0.7354	0.7544
423.8 K, m1 = 12.7	–	0.9216	0.9345	0.9595
424.5 K, m1 = 16.39	–	1.333	1.351	1.386
424.51 K, m1 = 7.863	–	0.5562	0.564	0.5785
424.52 K, m1 = 0.0473	–	0.1848	0.1879	0.1928
425.84 K, m1 = 2.621	–	0.2701	0.2739	0.2812
446.9 K, m1 = 12.7	–	0.7773	0.7897	0.8123
447.18 K, m1 = 5.897	–	0.3666	0.3725	0.384
448.7 K, m1 = 10.11	–	0.6126	0.622	0.6415
448.75 K, m1 = 0.1185	–	0.1599	0.1628	0.1675
449.16 K, m1 = 0.0473	–	0.1575	0.16	0.1655
449.75 K, m1 = 16.39	–	1.091	1.108	1.141
449.82 K, m1 = 7.863	–	0.4786	0.4862	0.5006
450.7 K, m1 = 1.242	–	0.1876	0.1908	0.1908
450.74 K, m1 = 0.4814	–	0.1681	0.1707	0.1758
452.54 K, m1 = 2.621	–	0.2292	0.2329	0.2399
470.42 K, m1 = 1.242	–	0.1686	0.1717	0.1717
471.5 K, m1 = 5.897	–	0.322	0.3277	0.3385
471.52 K, m1 = 16.39	–	0.9346	0.951	0.982
472.03 K, m1 = 0.1185	–	0.1403	0.143	0.1477
472.3 K, m1 = 7.863	–	0.4267	0.4344	0.4487
472.52 K, m1 = 12.7	–	0.6626	0.6742	0.6964
473.7 K, m1 = 0.4814	–	0.1482	0.1509	0.1559
473.8 K, m1 = 10.11	–	0.5335	0.543	0.562
474.25 K, m1 = 0.0473	–	0.137	0.1394	0.1441
476.22 K, m1 = 2.621	–	0.2026	0.2064	0.2135
494.2 K, m1 = 1.242	–	0.1501	0.1532	0.1532
497.12 K, m1 = 2.621	–	0.1843	0.188	0.1951
497.2 K, m1 = 16.39	–	0.807	0.8237	0.8543
497.3 K, m1 = 0.4814	–	0.1323	0.135	0.1401
497.3 K, m1 = 7.863	–	0.3824	0.3901	0.4047
497.83 K, m1 = 0.0473	–	0.122	0.1245	0.1291
498.45 K, m1 = 0.1185	–	0.1233	0.1256	0.1303
499.3 K, m1 = 5.897	–	0.282	0.288	0.2988
499.52 K, m1 = 10.11	–	0.4719	0.4813	0.5
499.82 K, m1 = 12.7	–	0.5736	0.5853	0.6075
520.61 K, m1 = 1.242	–	0.1336	0.137	0.137
520.7 K, m1 = 7.863	–	0.3496	0.358	0.3733
521.37 K, m1 = 0.1185	–	0.111	0.1137	0.1187
521.42 K, m1 = 0.4814	–	0.119	0.1219	0.1271
522.35 K, m1 = 0.0473	–	0.1093	0.1125	0.1168
522.42 K, m1 = 2.621	–	0.1665	0.1706	0.1781
522.94 K, m1 = 10.11	–	0.4262	0.4365	0.4263
523.03 K, m1 = 12.7	–	0.5136	0.5262	0.5488
523.82 K, m1 = 16.39	–	0.7062	0.722	0.754
524.86 K, m1 = 5.897	–	0.2531	0.26	0.2718
545.92 K, m1 = 1.242	–	0.1203	0.124	0.124
547.5 K, m1 = 0.1185	–	0.0993	0.1018	0.1076
547.82 K, m1 = 16.39	–	0.6309	0.648	0.682
548.75 K, m1 = 0.4814	–	0.106	0.1091	0.1148
548.9 K, m1 = 12.7	–	0.4554	0.4693	0.494
549.25 K, m1 = 0.0473	–	0.0974	0.1009	0.106
549.32 K, m1 = 5.897	–	0.2338	0.2411	0.2537
550.4 K, m1 = 2.621	–	0.1487	0.1533	0.1615
573.1 K, m1 = 0.1185	–	0.0885	0.0922	0.0982
573.7 K, m1 = 5.897	–	0.2138	0.2229	0.239
573.81 K, m1 = 12.7	–	0.4053	0.422	0.449
573.86 K, m1 = 2.621	–	0.1352	0.1409	0.1502
574.03 K, m1 = 0.4814	–	0.0947	0.0986	0.1051
574.1 K, m1 = 0.0473	–	0.0871	0.0907	0.0966
574.21 K, m1 = 1.242	–	0.1064	0.111	0.111
574.23 K, m1 = 16.39	–	0.555	0.576	0.615
